Several values for one entry are separate records, joined by “and”; a condition that tells them apart may be missing. Equal entries are not always repeated.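 Results reflect a 48-hour exposure of cells in 96-well plates to compound at five concentrations. GI50 is the concentration that inhibits growth by half. At the TGI there is no net growth.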
System: MDA-MB-468 breast
Assay: DTP human tumour cell line panel, 48 h

| Structure (SMILES) | GI50 [µM] | TGI |
| --- | --- | --- |
| CS(=O)(=O)CCNCc1coc(-c2ccc3ncnc(Nc4ccc(OCc5ccccc5)cc4)c3c2)c1 | 0.543 | 3.8 µM |
| COc1cc(Nc2ncccc2C(=O)Nc2nc3ccc(F)cc3s2)cc(OC)c1OC | 1.22 | 8.85 µM |
| Cc1nnc(-c2ccc(C)c(-c3ccc(C(=O)Nc4cccc(C#N)c4)cc3)c2)o1 | 8.65 | > 25 µM |
| CC1(C)N=C(N)N=C(N)N1c1ccc(CCC(=O)Nc2ccc(S(=O)(=O)F)cc2)c(Cl)c1 | 0.864 | > 100 µM |
| O=C1C=CC(=O)C2C1C1(Cl)C(Cl)=C(Cl)C2(Cl)C1(Cl)Cl (configuration not stated) | 3.29 | 11.3 µM |
| Nc1n[nH]c2cccc(C#Cc3cccc(NC(=O)c4cccc(C(F)(F)F)c4)c3)c12 | 9.71 | 28.2 µM |
| COc1cccc2c1C(=N)c1c(O)c3c(c(O)c1C2=O)C[C@@](O)(C(C)=O)C[C@@H]3O[C@H]1C[C@H](N)[C@H](O)[C@H](C)O1 | 0.278 | 1.28 µM |
| COc1ccc2c(c1)NC1=C(C(=O)OC1)C2c1cc(OC)c(OC)c(OC)c1 (configuration not stated) | < 0.01 | < 0.01 µM |
| COc1cc(C2c3cc4c(cc3OC(C)(N3CCCC3)C2C)OCO4)cc(OC)c1OC (configuration not stated) | 0.419 | 31.2 µM |
| O=C(Oc1ccc[nH]c1=O)c1cc([N+](=O)[O-])cc([N+](=O)[O-])c1 | > 100 | > 100 µM |
| NC(CSC(c1ccccc1)(c1ccccc1)c1ccccc1)C(=O)NCC(=O)O (configuration not stated) | 2.88 | 17.7 µM |
| O=C1NC(=S)S/C1=C/c1ccc2c(c1)OCO2 | > 100 | > 100 µM |
| C=C(C)[C@@H]1CC[C@]2(COCCCN)CC[C@]3(C)[C@H](CC[C@@H]4[C@@](C)(CCCNCCCN)[C@H](C(=C)C)CC[C@]43C)[C@@H]12 | 1.87 | 3.75 µM |
| CCN(CC)CCNC(Cc1ccccc1)c1ccc(OCc2ccccc2)cc1 (configuration not stated) | 4.24 | 18.3 µM |
| CC/C=C\C[C@H]1CC=C2C(=O)C=C[C@@H]2CC=CCCCC(=O)O[C@@H](CCCCC)CC=C2C(=O)C=C[C@@H]2CC=CCCCC(=O)O[C@@H](CCCCC)CC=C2C(=O)C=C[C@@H]2CC=CCCCC(=O)O[C@@H](CCCCC)CC=C2C(=O)C=C[C@@H]2CC=CCCCC(=O)O1 | 1.7 | 4.22 µM |
| CCOc1cccc(/C=N/NC(=O)c2cccc(Nc3ccnc(C(F)(F)F)c3)c2)c1O | 0.327 | > 100 µM |
| CCCCCCCCn1ccc2cc(NC(=O)Cn3cc(CN4CCCCCC4)nn3)ccc21 | 1.65 | 3.33 µM |
| C=CC(=O)N1CCC(Oc2cc3c(Nc4ccc(Cl)c(Cl)c4F)ncnc3cc2OC)CC1 | < 0.001 | < 0.01 µM and 0.0199 µM |
| COC(=O)c1ccc2[nH]c(O)c(C(=Nc3ccc(N(C)C(=O)CN4CCN(C)CC4)cc3)c3ccc4c(c3)OCO4)c2c1 | 0.84 | 2.38 µM |
| CCCC(C)c1ccc(OCCCCCCN2CCNCC2)cc1 (configuration not stated) | 1.71 | 3.49 µM |
| C=C1c2c(C)nn(-c3ccc(C#CCOC4OC(CO)C(O)C(O)C4O)cc3)c2N(C)C23C[C@H]1C1(C)c4c(C)nn(-c5ccc(C#CCOC6OC(CO)C(O)C(O)C6O)cc5)c4N(C)C(C)(C[C@H]12)C3 (some centres not stated) | 1.34 | 2.73 µM |
| Nc1ncc(-c2cnn(C3CCNCC3)c2)cc1-c1nc2cc(Cl)ccc2o1 | 1.65 | 3.29 µM |
| O=C(NC(=O)c1c(F)cccc1F)Nc1cccc(Oc2ncc(Cl)cn2)c1 | 7.78 | > 100 µM |
| O=c1[nH]c2ccccc2cc1-c1nc2ccc(Cl)cc2[nH]1 | 3.26 | > 100 µM |
| O=C(O)c1ccc(CN2CCC(CN[C@@H]3C[C@H]3c3ccccc3)CC2)cc1 | > 100 | > 100 µM |
| O=C(/C=C/c1ccccc1)Nc1ncc(Cc2ccccc2Cl)s1 | 0.37 | > 71.5 µM |
